From patent US8334288B2, “4-phenoxymethylpiperidines as modulators of GPR119 activity” (IRM LLC, priority 2008, dated 2012)

biological target: T1, human GPR119 (Homo sapiens, UniProt Q8TDV5); experiment: Cyclic AMP assay in stable cell line (HTRF, Flp-In-CHO-hGPR119 cells); assay type: cell-based; settings: increase in intracellular cAMP, 30 minutes at 37° C., 1 mM IBMX
T1 construct: expressed in transfected cells; host or cells: Flp-In-CHO cells (Invitrogen, Cat. #R758-07), stably transfected with pcDNA5/FRT-human GPR119 plus pOG44
T1 sequence (Q8TDV5 1-335): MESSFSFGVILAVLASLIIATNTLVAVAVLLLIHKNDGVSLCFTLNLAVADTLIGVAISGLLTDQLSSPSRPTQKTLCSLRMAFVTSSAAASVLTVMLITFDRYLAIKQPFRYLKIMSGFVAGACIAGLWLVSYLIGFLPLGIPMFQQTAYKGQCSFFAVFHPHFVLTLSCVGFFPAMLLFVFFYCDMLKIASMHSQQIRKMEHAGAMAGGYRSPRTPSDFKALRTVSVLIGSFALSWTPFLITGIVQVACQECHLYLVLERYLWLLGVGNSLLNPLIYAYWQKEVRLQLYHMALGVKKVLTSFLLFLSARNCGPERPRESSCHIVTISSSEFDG
Experimental: Flp-In-CHO cells (Invitrogen, Cat. #R758-07) are maintained in Ham's F12 medium supplemented with 10% fetal bovine serum, 1% antibiotic mixture and 2 mM L-glutamine. The cells are transfected with a DNA mixture containing human GPR119 in pcDNA5/FRT vector and the pOG44 vector (1:9) using Fugene6 (Roche), according to the manufacturer's instruction. After 48 h, the medium is changed to medium supplemented with 400 μg/ml hygromycin B to initiate the selection of stably transfected cells.
To test the activity of compounds of the invention, Flp-In-CHO-hGPR119 cells are harvested and resuspended in DMEM plus 3% lipid-depleted fetal bovine serum. Forth μl of cells are plated in 384 well plates at a density of 15,000 cells/well. IBMX (3-isobutyl-1-methyl-xanthine) is added to the cells to a final concentration of 1 mM, followed by the addition of 500 nl of the compound to be tested. The cells are incubated at 37° C. for 30 minutes. Equal volume (20 μl) of the HTRF reagents, anti-cAMP-Cryptate and cAMP-XL665, are added to the cells. The plates are incubated at rt for 1 h and read on a HTRF reader according to the manufacturer's instruction.

Row | SMILES | EC50
1 | CCc1cnc(N2CCC(COc3c(F)cc(-c4ccc(S(C)(=O)=O)cn4)cc3F)CC2)nc1 [Example A1, 2-(4-((2,6-difluoro-4-(5-(methylsulfonyl)pyridin-2-yl)phenoxy)methyl)piperidin-1-yl)-5-ethylpyrimidine] | 1 nM
2 | CCc1cnc(N2CCC(COc3c(F)cc(-c4ccc(S(=O)(=O)CC5(C)COC5)cc4)cc3F)CC2)nc1 [Example A3, 2-(4-((3,5-difluoro-4′-((3-methyloxetan-3-yl)methylsulfonyl)biphenyl-4-yloxy)methyl)piperidin-1-yl)-5-ethylpyrimidine] | 0.7 nM
3 | CCc1cnc(N2CCC(COc3c(F)cc(-c4ccc(S(C)(=O)=O)cc4)cc3F)CC2)nc1 [Example A6] | 0.7 nM
4 | CCc1cnc(N2CCC(COc3c(F)cc(-c4ccc(CO)cc4)cc3F)CC2)nc1 [Example A14] | 5 nM
5 | CCc1cnc(N2CCC(COc3c(F)cc(-c4cnc(N5CCCC5)nc4)cc3F)CC2)nc1 [Example A16] | 171 nM
6 | COc1cc(-c2cc(F)c(OCC3CCN(C(=O)OC(C)(C)C)CC3)c(F)c2)ccn1 [Example A20] | 46 nM
7 | CCc1cnc(N2CCC(COc3c(F)cc(-c4ccc(S(C)(=O)=O)nc4)cc3F)CC2)nc1 [Example A22] | 2 nM
8 | CCc1cnc(N2CCC(COc3c(F)cc(-c4cnn(C)c4)cc3F)CC2)nc1 [Example A24] | 258 nM
9 | CCc1cnc(N2CCC(COc3c(F)cc(-c4cnc(C(N)=O)nc4)cc3F)CC2)nc1 [Example A35] | 9 nM
10 | CCc1cnc(N2CCC(COc3c(F)cc(-c4ccc(C(C)(C)O)nc4)cc3F)CC2)nc1 [Example A38] | 29 nM
11 | CC1(OC(=O)N2CCC(COc3c(F)cc(-c4ccc(C5(N)CC5)nc4)cc3F)CC2)CC1 [Example A39] | 37 nM
12 | CCc1cnc(N2CCC(COc3c(F)cc(-c4ccc(-c5nn[nH]n5)nc4)cc3F)CC2)nc1 [Example B5] | 79 nM
13 | CCc1cnc(N2CCC(COc3c(F)cc(-c4ccc(-c5nnn(C)n5)cc4)cc3F)CC2)nc1 [Example C1, 2-(4-((3,5-difluoro-4′-(2-methyl-2H-tetrazol-5-yl)biphenyl-4-yloxy)methyl)piperidin-1-yl)-5-ethylpyrimidine] | 5 nM
14 | CCc1cnc(N2CCC(COc3c(F)cc(-c4cccc(Cc5nnn(C)n5)c4)cc3F)CC2)nc1 [Example C5] | 22 nM
15 | CC1(OC(=O)N2CCC(COc3c(F)cc(-c4ccc(S(C)(=O)=O)cc4)cc3F)CC2)CC1 [Example D1, 1-methylcyclopropyl 4-((3,5-difluoro-4′-(methylsulfonyl)biphenyl-4-yloxy)methyl)piperidine-1-carboxylate] | 1 nM
16 | CC(C)(C)OC(=O)N1CCC(COc2c(F)cc(-c3cc[n+]([O-])cc3)cc2F)CC1 [Example E1, 4-(4-((1-(tert-butoxycarbonyl)piperidin-4-yl)methoxy)-3,5-difluorophenyl)pyridine 1-oxide] | 38 nM

Further lines, results first:

Row | EC50 | SMILES
17 | 0.5 nM | CCc1cnc(N2CCC(COc3c(F)cc(-c4ccc(-n5cncn5)nc4C)cc3F)CC2)nc1 [Example F1, 2-(4-((2,6-difluoro-4-(2-methyl-6-(1H-1,2,4-triazol-1-yl)pyridin-3-yl)phenoxy)methyl)piperidin-1-yl)-5-ethylpyrimidine]
18 | 0.3 nM | CCCS(=O)(=O)c1ccc(-c2cc(F)c(OCC3CCN(C(=O)OC4(C)CC4)CC3)c(F)c2)c(C)n1 [Example F4, 1-methylcyclopropyl 4-((2,6-difluoro-4-(2-methyl-6-(propylsulfonyl)pyridin-3-yl)phenoxy)methyl)piperidine-1-carboxylate]
19 | 1 nM | CCCS(=O)(=O)c1ccc(-c2cc(F)c(OCC3CCN(C(=O)OC(C)CC)CC3)c(F)c2)c(C)n1 (stereo not shown) [Example F6, sec-butyl 4-((2,6-difluoro-4-(2-methyl-6-(propylsulfonyl)pyridin-3-yl)phenoxy)methyl)piperidine-1-carboxylate]
20 | 3 nM | CCc1cnc(N2CCC(COc3c(F)cc(-c4ccc(-c5cnco5)cc4)cc3F)CC2)nc1 [Example G1, 5-(4′-((1-(5-ethylpyrimidin-2-yl)piperidin-4-yl)methoxy)-3′,5′-difluorobiphenyl-4-yl)oxazole]
21 | 92 nM | CCc1cnc(N2CCC(COc3c(F)cc(-c4ccc(Cn5ccnc5)cc4)cc3F)CC2)nc1 [Example H4]
22 | 28 nM | CCc1cnc(N2CCC(COc3c(F)cc(-c4ccc(Cn5ncnn5)cc4)cc3F)CC2)nc1 [Example H5]
23 | 13 nM | CC1(OC(=O)N2CCC(COc3c(F)cc(-c4cnc(C(=O)N5CCC(O)CC5)nc4)cc3F)CC2)CC1 [Example J1]
24 | 19 nM | CCN(CCO)C(=O)c1ncc(-c2cc(F)c(OCC3CCN(C(=O)OC4(C)CC4)CC3)c(F)c2)cn1 [Example J5]
25 | 10 nM | CCOC(=O)CCNC(=O)c1ncc(-c2cc(F)c(OCC3CCN(C(=O)OC4(C)CC4)CC3)c(F)c2)cn1 [Example J8]
26 | 263 nM | CC1(OC(=O)N2CCC(COc3c(F)cc(-c4cnc5[nH]c(=O)oc5c4)cc3F)CC2)CC1 [Example J11]
27 | 14 nM | CN1CCN(C(=O)c2ncc(-c3cc(F)c(OCC4CCN(C(=O)OC5(C)CC5)CC4)c(F)c3)cn2)CC1 [Example J12]
28 | 45 nM | CC1(OC(=O)N2CCC(COc3c(F)cc(-c4cnc(C(=O)NCCCO)nc4)cc3F)CC2)CC1 [Example J15]
29 | 47 nM | CC1(OC(=O)N2CCC(COc3c(F)cc(-c4cnc(C(=O)N5CC[C@H](O)C5)nc4)cc3F)CC2)CC1 [Example J19]
30 | 2070 nM | CCc1cnc(N2CCC(COc3c(F)cc(-c4cnn(CCN(C)C)c4)cc3F)CC2)nc1 [Example K1, 2-(4-(4-((1-(5-ethylpyrimidin-2-yl)piperidin-4-yl)methoxy)-3,5-difluorophenyl)-1H-pyrazol-1-yl)-N,N-dimethylethanamine]
31 | 62 nM | CCc1cnc(N2CCC(COc3c(F)cc(-c4ccc(CN(C)C(C)=O)cc4)cc3F)CC2)nc1 [Example L1, N-((4′-((1-(5-ethylpyrimidin-2-yl)piperidin-4-yl)methoxy)-3′,5′-difluorobiphenyl-4-yl)methyl)-N-methylacetamide]
